Reference: article PMC5000470, “Optimization of extraction parameters of PTP1β (protein tyrosine phosphatase 1β), inhibitory polyphenols, and anthocyanins from Zea mays L. using response surface methodology (RSM)” (BMC Complementary and Alternative Medicine, 2016)
Read-outs that look alike come from different tables or passages of the source.

How the values were obtained:
[1] = biological target: T1, PTP1β (human, recombinant) (Homo sapiens, UniProt P18031); experiment: PTP1β inhibitory activity assay (pNPP substrate); format: biochemical; details: for inhibition at 10 µg/mL: concentration 10 μg/mL; for inhibition at 50 µg/mL: concentration 50 μg/mL; for inhibition at 25 µg/mL: concentration 25 μg/mL
T1 construct: purchased BIOMOL International LP (Plymouth Meeting, PA)
T1 sequence (P18031 1-435): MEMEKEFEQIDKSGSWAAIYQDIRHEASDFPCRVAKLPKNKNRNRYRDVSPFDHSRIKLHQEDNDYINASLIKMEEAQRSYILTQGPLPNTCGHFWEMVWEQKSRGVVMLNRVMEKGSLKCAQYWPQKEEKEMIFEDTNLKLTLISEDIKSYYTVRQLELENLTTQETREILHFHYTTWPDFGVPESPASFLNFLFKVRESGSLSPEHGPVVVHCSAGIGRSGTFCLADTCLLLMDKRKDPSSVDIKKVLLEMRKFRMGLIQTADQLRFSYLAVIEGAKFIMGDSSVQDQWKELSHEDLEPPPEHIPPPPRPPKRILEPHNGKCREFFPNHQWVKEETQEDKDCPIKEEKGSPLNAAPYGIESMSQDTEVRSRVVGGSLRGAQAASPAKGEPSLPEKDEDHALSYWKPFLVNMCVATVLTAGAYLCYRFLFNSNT
Procedure: A PTP1β (human, recombinant) drug discovery kit was purchased from BIOMOL® International LP (Plymouth meeting, PA). Enzymatic activity was measured using pNPP, as described previously. To each of the 96-wells in a microtiter plate (final volume: 100 μL) was added 2 mM pNPP and PTP1β (0.05-0.1 ng/well) in a buffer containing 50 mM citrate (pH 6.0), 0.1 M sodium chloride, 1 mM EDTA, and 1 mM dithiothreitol, with or without test compounds. Following incubation at 37 °C for 30 min, the reaction was terminated with 10 M sodium hydroxide.
All calculations and analyses were performed using statistical analysis system (SAS, SAS Institude Inc., NC, USA, version 9.1) software and Sigma plot (Systat Software Inc., USA, version 11). Inhibition rates were calculated as percentages (%) with respect to the control value and IC50 value was estimated from the least-squares regression line of the logarithmic concentration plotted against inhibitory activity.

[2] = test system: rat lenses aldose reductase; design: method as in PMID 23586057; details: cited from earlier work
[3] = test system: human recombinant aldose reductase; design: method as in PMID 23586057; details: cited from earlier work
[4] = biological target: T1, PTP1β (human, recombinant); experiment: Kinetics of PTP1β inhibition (Lineweaver-Burk plots, pNPP substrate); format: biochemical; design: dose or concentration left out as unconfirmed
Procedure: […] The initial rate was determined on the basis of the rate of increase in absorbance at 405 nm. The Michaelis-Menten constant (Km) and maximal velocity (Vmax) of PTP1β were determined by Lineweaver-Burk Plot analysis for competitive inhibition, and the intercept on the vertical axis for noncompetitive inhibition.
A kinetic analysis of PTP1β inhibition by compounds 7 and 11 using Lineweaver-Burk plots of 1/velocity and 1/concentration of substrate is shown in Fig. 2. […] However, compound 7 yielded a noncompetitive inhibition pattern against PTP1β. […] These compounds may be potential lead compounds for further development as a functional food source for the prevention of diabetes.

[5] = Table 2, concentration 100 μg/mL, read-out: Inhibition (%)
[6] = Table 2, isolated compounds, mean of 3 duplication analyses, read-out: IC50 (μg/ml) (converted)
[7] = isolated compounds, read-out: IC50

SMILES	inhibition at 100 µg/mL [1, 5] [%]	IC50 [1, 6] [µM]	inhibition at 10 µg/mL ([1]; Table 2) [%]	inhibition at 50 µg/mL ([1]; Table 2) [%]	IC50 [1, 7] [µM]	further results
Cc1ccc(C(=O)Nc2ccc(S(=O)(=O)O)c3cc(S(=O)(=O)O)cc(S(=O)(=O)O)c23)cc1NC(=O)c1cccc(NC(=O)Nc2cccc(C(=O)Nc3cc(C(=O)Nc4ccc(S(=O)(=O)O)c5cc(S(=O)(=O)O)cc(S(=O)(=O)O)c45)ccc3C)c2)c1 [Suramin, suramin, reference compound]	–	–	–	–	–	inhibition at 3.21 µg/mL ([1]; Table 1, concentration 3.21 μg/mL): 10.7%; inhibition at 6.49 µg/mL ([1]; Table 1, concentration 6.49 μg/mL): 40.6%; inhibition at 12.97 µg/mL ([1]; Table 1, concentration 12.97 μg/mL): 61.9%; inhibition at 1 µg/mL ([1]; Table 2, concentration 1 μg/mL): 10.7%; inhibition at 2.5 µg/mL ([1]; Table 2, concentration 2.5 μg/mL): 46.5%; inhibition at 5 µg/mL ([1]; Table 2, concentration 5 μg/mL): 64.3%
O=C(O)c1ccc(O)c(O)c1 [compound 1, protocatechuic acid]	–	–	–	–	–	inhibition at 100 µg/mL [1]: < 50%
COc1cc(/C=C/C(=O)O)ccc1O [compound 5, ferulic acid]	96.1	185	28.3	64.5	185	–
OC[C@H]1O[C@@H](Oc2cc3c(O)cc(O)cc3[o+]c2-c2ccc(O)c(O)c2)[C@H](O)[C@@H](O)[C@@H]1O [compound 8, cyanidin-3-glucoside]	< 50	–	–	–	–	–
OC[C@H]1O[C@@H](Oc2cc3c(O)cc(O)cc3[o+]c2-c2ccc(O)cc2)[C@H](O)[C@@H](O)[C@@H]1O [compound 9, pelargonidin-3-glucoside]	55	211	1.09	13.3	211	–
COc1cc(-c2[o+]c3cc(O)cc(O)c3cc2O[C@@H]2O[C@H](CO)[C@@H](O)[C@H](O)[C@H]2O)ccc1O [compound 10, peonidin-3-glucoside]	< 50	–	–	–	–	–

Further lines, with some results ahead:

inhibition at 100 µg/mL [1, 5] [%]	IC50 [1, 6] [µM]	inhibition at 10 µg/mL ([1]; Table 2) [%]	inhibition at 50 µg/mL ([1]; Table 2) [%]	IC50 [1, 7] [µM]	SMILES	further results
< 50	–	–	–	–	COc1cc(C(=O)O)ccc1O [compound 2, vanillic acid]	–
< 50	–	–	–	–	O=C(O)c1c(O)cc(O)cc1O [compound 3, 2,4,6-trihydroxy benzoic acid]	–
< 50	–	–	–	–	O=C(O)/C=C/c1ccc(O)cc1 [compound 4, p-4-hydroxycinnamic acid]	–
< 50	–	–	–	–	O=c1c(O[C@@H]2O[C@H](CO)[C@@H](O)[C@H](O)[C@H]2O)c(-c2ccc(O)c(O)c2)oc2cc(O)cc(O)c12 [compound 6, hirsutrin]	inhibitory activity on rat lenses aldose reductase [2]: significant inhibitory activities; inhibitory activity on human recombinant aldose reductase [3]: significant inhibitory activities
–	64	15	85.9	64	COc1cc(-c2oc3cc(O)cc(O)c3c(=O)c2O[C@@H]2O[C@H](CO)[C@@H](O)[C@H](O)[C@H]2O)ccc1O [compound 7, 3′-methoxyhirsutrin]	type of inhibition of PTP1β [4]: noncompetitive; inhibitory activity on rat lenses aldose reductase [2]: significant inhibitory activities; inhibition at 25 µg/mL ([1]; Table 2): 36.8%; inhibitory activity on human recombinant aldose reductase [3]: significant inhibitory activities
–	54.1	18.5	91.7	54.1	O=C(O)CC(=O)OC[C@H]1O[C@@H](Oc2cc3c(O)cc(O)cc3[o+]c2-c2ccc(O)c(O)c2)[C@H](O)[C@@H](O)[C@@H]1O [compound 11, cyanidin-3-(6”-malonylglucoside)]	type of inhibition of PTP1β [4]: mixed; inhibitory activity on rat lenses aldose reductase [2]: significant inhibitory activities; inhibition at 25 µg/mL ([1]; Table 2): 36.2%; inhibitory activity on human recombinant aldose reductase [3]: significant inhibitory activities
